Source: the supplement of paper PMC11061612

What was measured:
[1] = tested on: FU-OV-1 (Ovarian Carcinoma); experiment: Bliss excess, mean over the matrix (fraction); higher = more synergy
Method in brief: (§1)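 After 24 hours at 37°C and 5% CO2 in 1536-well plates, cells in DMEM/F12 or RPMI plus 10% FBS received two-drug dose matrices for 72 hours. Viability came from CellTiter-Glo 2.0 luminescence and was scaled as inhibition, anchored at 0 by vehicle wells and at 1 by blank wells. Combination Emax is taken as the second-highest inhibition in the matrix, and Bliss excess as the observed combination effect less EA + EB − EA·EB, with EA and EB the single-agent effects.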

[2] = tested on: TC-YIK (Other Solid Carcinomas); experiment: as above
Method in brief: as §1

[3] = tested on: MEG-01 (Chronic Myelogenous Leukemia); experiment: combination Emax (second highest fraction inhibited in the dose matrix, 72 h); higher = more inhibition; extreme values may be limits of the assay
Method in brief: as §1

D-392MG (Glioblastoma) = experiment: as above
Method in brief: as §1

[4] = tested on: FU-OV-1 (Ovarian Carcinoma); experiment: as above
Method in brief: as §1

[5] = tested on: HCT-116 (Colorectal Carcinoma); experiment: as above
Method in brief: as §1

[6] = tested on: HCC1143 (Breast Carcinoma); experiment: as above
Method in brief: as §1

SK-MEL-1 (Melanoma) = experiment: as above
Method in brief: as §1

[7] = tested on: TC-YIK (Other Solid Carcinomas); experiment: as above
Method in brief: as §1

[8] = tested on: HCC-827 (Lung Adenocarcinoma); experiment: as above
Method in brief: as §1

[9] = tested on: DOK (Oral Cavity Carcinoma); experiment: as above
Method in brief: as §1

[10] = tested on: KG-1 (Acute Myeloid Leukemia); experiment: as above
Method in brief: as §1

[11] = tested on: D-283MED (Other Solid Carcinomas); experiment: as above
Method in brief: as §1

[12] = tested on: SK-UT-1 (Other Solid Carcinomas); experiment: as above
Method in brief: as §1

[13] = tested on: SW948 (Colorectal Carcinoma); experiment: as above
Method in brief: as §1

[14] = tested on: HLE (Hepatocellular Carcinoma); experiment: as above
Method in brief: as §1
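Throughout, for Bliss excess, mean over the matrix: after 72 h of two-drug dosing.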

| SMILES | Bliss excess [1] | Bliss excess [2] | combination Emax [3] | combination Emax (D-392MG (Glioblastoma)) | combination Emax [4] | combination Emax [5] | combination Emax [6] | combination Emax (SK-MEL-1 (Melanoma)) | combination Emax [7] | combination Emax [8] | combination Emax [9] | combination Emax [10] | combination Emax [11] | combination Emax [12] | combination Emax [13] | combination Emax [14] |
| --- | --- | --- | --- | --- | --- | --- | --- | --- | --- | --- | --- | --- | --- | --- | --- | --- |
| COc1nnc2ccc(N3CCC(c4ccc(OCCN5CCN(C)C(=O)[C@H]5C)cc4)CC3)nn12 [AZD5153] + Cn1cnc2c(F)c(Nc3ccc(Br)cc3Cl)c(C(=O)NOCCO)cc21 [Selumetinib] (first compound max 1 µM, 7x7, partner max 10 µM) | 0.0236 | 0.0028 | 0.988 | 0.569 | 0.735 | 0.866 | 0.513 | 0.983 | 0.93 | 0.375 | 0.648 | 0.817 | 0.849 | 0.486 | 0.752 | 0.341 |
| NC1(C(=O)N[C@@H](CCO)c2ccc(Cl)cc2)CCN(c2ncnc3[nH]ccc23)CC1 [Capivasertib] + Cn1cnc2c(F)c(Nc3ccc(Br)cc3Cl)c(C(=O)NOCCO)cc21 [Selumetinib] (first compound max 10 µM, 7x7, partner max 10 µM) | -0.0316 | 0.0245 | 0.825 | 0.484 | 0.592 | 0.877 | 0.317 | 0.874 | 0.496 | 0.6 | 0.931 | 0.37 | 0.548 | 0.447 | 0.829 | 0.236 |
| Cn1cnc2c(F)c(Nc3ccc(Br)cc3Cl)c(C(=O)NOCCO)cc21 [Selumetinib] + CC(C)n1c(=O)n(C)c2cnc3cc(F)c(-c4ccc(OCCCN5CCCCC5)nc4)cc3c21 [AZD1390] (first compound max 10 µM, 7x7, partner max 0.3 µM) | -0.0109 | 0.0473 | 0.671 | 0.145 | 0.431 | 0.664 | 0.297 | 0.838 | 0.466 | 0.195 | 0.416 | 0.307 | 0.148 | 0.153 | 0.698 | 0.122 |
| C[C@@H](c1ccc2nccn2c1)n1nnc2ncc(-c3cnn(C)c3)nc21 [Savolitinib] + Cc1c2c(nn1C)CSCc1cc(n(C)n1)CSc1cc(c3ccccc3c1)OCCCc1c(C(=O)O)n(C)c3c-2c(Cl)ccc13 [AZD5991] (first compound max 1 µM, 7x7, partner max 1 µM) | -0.056 | 0.003 | 0.148 | 0.31 | 0.204 | 0.162 | 0.402 | 0.0746 | 0.193 | 0.283 | 0.372 | 0.711 | 0.725 | 0.174 | 0.215 | 0.164 |
| Cn1cnc2c(F)c(Nc3ccc(Br)cc3Cl)c(C(=O)NOCCO)cc21 [Selumetinib] + C=CCn1c(=O)c2cnc(Nc3ccc(N4CCN(C)CC4)cc3)nc2n1-c1cccc(C(C)(C)O)n1 [AZD1775] (first compound max 10 µM, partner max 1 µM) | -0.015 | -0.03 | 0.974 | 0.263 | 0.47 | 0.785 | 0.528 | 0.896 | 0.826 | 0.377 | 0.618 | 0.587 | 0.956 | 0.58 | 0.79 | 0.345 |
| COc1nnc2ccc(N3CCC(c4ccc(OCCN5CCN(C)C(=O)[C@H]5C)cc4)CC3)nn12 [AZD5153] + CCN(CCO)CCCOc1ccc2c(Nc3cc(CC(=O)Nc4cccc(F)c4)[nH]n3)ncnc2c1 [AZD2811] (first compound max 1 µM, 7x7, partner max 1 µM) | -0.0571 | -0.106 | 0.895 | 0.456 | 0.691 | 0.759 | 0.431 | 0.556 | 0.915 | 0.43 | 0.544 | 0.789 | 0.9 | 0.658 | 0.65 | 0.521 |
| CC(=O)c1c(C)c2cnc(Nc3ccc(N4CCNCC4)cn3)nc2n(C2CCCC2)c1=O [Palbociclib] + CC1(C)CCC(CN2CCN(c3ccc(C(=O)NS(=O)(=O)c4ccc(NCC5CCOCC5)c([N+](=O)[O-])c4)c(Oc4cnc5[nH]ccc5c4)c3)CC2)=C(c2ccc(Cl)cc2)C1 [Venetoclax] (first compound max 10 µM, 7x7, partner max 1 µM) | -0.0496 | -0.0713 | 0.484 | 0.223 | 0.175 | 0.559 | 0.129 | 0.242 | 0.534 | 0.168 | 0.126 | 0.85 | 0.668 | 0.108 | 0.382 | 0.0796 |
| NC1(C(=O)N[C@@H](CCO)c2ccc(Cl)cc2)CCN(c2ncnc3[nH]ccc23)CC1 [Capivasertib] + CCN(CCO)CCCOc1ccc2c(Nc3cc(CC(=O)Nc4cccc(F)c4)[nH]n3)ncnc2c1 [AZD2811] (first compound max 10 µM, 7x7, partner max 1 µM) | -0.0235 | -0.0415 | 0.638 | 0.332 | 0.268 | 0.587 | 0.287 | 0.292 | 0.95 | 0.35 | 0.592 | 0.458 | 0.737 | 0.522 | 0.769 | 0.33 |
| CC(=O)c1c(C)c2cnc(Nc3ccc(N4CCNCC4)cn3)nc2n(C2CCCC2)c1=O [Palbociclib] + Cn1cnc2c(F)c(Nc3ccc(Br)cc3Cl)c(C(=O)NOCCO)cc21 [Selumetinib] (first compound max 10 µM, 7x7, partner max 10 µM) | 0.0004 | 0.001 | 0.855 | 0.262 | 0.4 | 0.851 | 0.295 | 0.83 | 0.729 | 0.22 | 0.5 | 0.481 | 0.582 | 0.137 | 0.665 | 0.143 |
| NC1(C(=O)N[C@@H](CCO)c2ccc(Cl)cc2)CCN(c2ncnc3[nH]ccc23)CC1 [Capivasertib] + C[C@@H]1COCCN1C2=NC(=NC(=C2)C3(CC3)[S@](=N)(=O)C)C4=C5C=CNC5=NC=C4 [AZD6738] (first compound max 10 µM, 7x7, partner max 10 µM) | -0.0313 | 0.0091 | 0.945 | 0.464 | 0.35 | 0.765 | 0.725 | 0.296 | 0.901 | 0.576 | 0.601 | 0.739 | 0.975 | 0.829 | 0.675 | 0.605 |
| NC1(C(=O)N[C@@H](CCO)c2ccc(Cl)cc2)CCN(c2ncnc3[nH]ccc23)CC1 [Capivasertib] + COc1nnc2ccc(N3CCC(c4ccc(OCCN5CCN(C)C(=O)[C@H]5C)cc4)CC3)nn12 [AZD5153] (first compound max 10 µM, 7x7, partner max 1 µM) | -0.0492 | -0.0723 | 0.877 | 0.512 | 0.575 | 0.813 | 0.325 | 0.681 | 0.962 | 0.481 | 0.768 | 0.852 | 0.771 | 0.658 | 0.699 | 0.389 |
| CS(=O)(=O)CCNCc1ccc(-c2ccc3ncnc(Nc4ccc(OCc5cccc(F)c5)c(Cl)c4)c3c2)o1 [Lapatinib] + C[C@@H](Oc1cc(-c2cnn(C3CCNCC3)c2)cnc1N)c1c(Cl)ccc(F)c1Cl [Crizotinib] (first compound max 10 µM, 7x7, partner max 10 µM) | -0.0304 | -0.0828 | 0.992 | 0.498 | 0.696 | 0.956 | 0.875 | 0.954 | 0.957 | 0.896 | 0.979 | 0.49 | 0.985 | 0.511 | 0.819 | 0.537 |
| CC(=O)c1c(C)c2cnc(Nc3ccc(N4CCNCC4)cn3)nc2n(C2CCCC2)c1=O [Palbociclib] + Cc1c2c(nn1C)CSCc1cc(n(C)n1)CSc1cc(c3ccccc3c1)OCCCc1c(C(=O)O)n(C)c3c-2c(Cl)ccc13 [AZD5991] (first compound max 10 µM, 7x7, partner max 1 µM) | -0.0538 | -0.0144 | 0.668 | 0.4 | 0.235 | 0.663 | 0.287 | 0.262 | 0.547 | 0.197 | 0.311 | 0.894 | 0.797 | 0.223 | 0.406 | 0.211 |
| Cn1cnc2c(F)c(Nc3ccc(Br)cc3Cl)c(C(=O)NOCCO)cc21 [Selumetinib] + C[C@@H]1COCCN1C2=NC(=NC(=C2)C3(CC3)[S@](=N)(=O)C)C4=C5C=CNC5=NC=C4 [AZD6738] (first compound max 10 µM, 7x7, partner max 10 µM) | 0.0621 | -0.0582 | 0.975 | 0.302 | 0.487 | 0.8 | 0.766 | 0.922 | 0.865 | 0.413 | 0.51 | 0.787 | 0.988 | 0.801 | 0.732 | 0.404 |
